US6020006A, “Reduction of hair growth” (The Gillette Company, priority 1998, dated 2000)

Key:
[1] = system: tissue-specific form of alkaline phosphatase; conditions: Millan, Clinica Chimica Acta. 209:123-129, 1992; cited from earlier work
[2] = system: Human hair follicles; assay: Human hair follicle growth assay; type: cell-based; conditions: for % Inhibition / reduction in growth rate: Day 6-Day 0, vs control
Experimental: Human hair follicles in growth phase (anagen) were isolated from face-lift tissue under a dissecting scope using a scalpel and watchmakers forceps. The skin was sliced into thin strips exposing 2-3 rows of follicles that could readily be dissected. Follicles were placed into 0.5 mL Williams E medium (Life Technologies, Gaithersburg, Md.) supplemented with […] L-glutamine, 10 μg/mL insulin, 10 ng/mL hydrocortisone, 100 units penicillin, 0.1 mg/mL streptomycin and 0.25 μg/mL amphotericin B. The follicles were incubated in 24 well plates (1 follicle/well) at 37° C. in an atmosphere of 5% CO2 and 95% air. Hair follicles were videorecorded in the 24-well plates under the dissecting scope under a power of 20×. Typically, initial recordings were made on day 0 (day follicles were placed in culture) or day 1, and again on days 7 or 8. Hair follicle lengths were assessed using an image analysis software system (Computer Eyes and NIH Image).

[3] = biological target: T1, Alkaline phosphatase (Mesocricetus auratus, UniProt A0A1U7QBN2); assay: Alkaline phosphatase activity, hamster flank organ hair follicle enzyme; type: biochemical
T1 construct: the supernatant was used as the enzyme source; from tissue; host or cells: whole hamster flank organs, homogenized, 12,000×g supernatant
T1 sequence (A0A1U7QBN2 18-524): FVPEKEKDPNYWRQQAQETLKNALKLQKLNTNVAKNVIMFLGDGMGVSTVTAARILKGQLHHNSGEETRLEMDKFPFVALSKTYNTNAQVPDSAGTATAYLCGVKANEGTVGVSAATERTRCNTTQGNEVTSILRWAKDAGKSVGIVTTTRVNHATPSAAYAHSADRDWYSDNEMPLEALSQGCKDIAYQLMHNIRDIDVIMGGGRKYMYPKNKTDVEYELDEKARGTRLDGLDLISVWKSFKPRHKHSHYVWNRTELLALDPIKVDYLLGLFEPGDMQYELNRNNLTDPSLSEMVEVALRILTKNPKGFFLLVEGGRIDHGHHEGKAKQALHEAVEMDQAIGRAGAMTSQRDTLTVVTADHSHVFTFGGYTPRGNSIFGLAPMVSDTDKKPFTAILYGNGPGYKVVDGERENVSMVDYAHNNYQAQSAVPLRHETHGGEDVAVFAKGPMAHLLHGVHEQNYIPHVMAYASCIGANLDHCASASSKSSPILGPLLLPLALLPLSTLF
Experimental: (§1) Alkaline phosphatase activity was determined using a kit supplied by Sigma Chemical Co. Whole flank organs from hamsters or isolated human hair follicles were homogenized in a Tris-sucrose buffer, pH 7.5, using a polytron. The homogenate was centrifuged at 12,000×g for 5 minutes in a microcentrifuge, and the supernatant was used as the enzyme source. The supernatant (0.1 mL) was added to a reaction mixture containing 0.5 mL substrate (p-nitophenol phosphate) and 0.5 mL reaction buffer (both reagents supplied in the kit). Inhibitors were added in a volume of 0.1 mL. Water was used as a negative control. Reaction mixtures were incubated for 30 minutes at 37° C. The reaction mixtures were then transferred to a tube containing 10 mL 0.05N NaOH. Absorbance was measured at a wavelength of 410 nm. Concentrated hydrochloric acid (0.2 mL) was added to each tube and tubes were mixed. Again, absorbance was measured at 410 nm. Absorbance values from the second measurement were substrated from the first measurement to give normalized alkaline phosphatase activity.

[4] = biological target: T2, Alkaline phosphatase (Homo sapiens, UniProt P05186); assay: Alkaline phosphatase activity, human hair follicle enzyme; type: biochemical
T2 construct: the supernatant was used as the enzyme source; from tissue; host or cells: isolated human hair follicles, homogenized, 12,000×g supernatant
T2 sequence (P05186 18-502 limits assumed): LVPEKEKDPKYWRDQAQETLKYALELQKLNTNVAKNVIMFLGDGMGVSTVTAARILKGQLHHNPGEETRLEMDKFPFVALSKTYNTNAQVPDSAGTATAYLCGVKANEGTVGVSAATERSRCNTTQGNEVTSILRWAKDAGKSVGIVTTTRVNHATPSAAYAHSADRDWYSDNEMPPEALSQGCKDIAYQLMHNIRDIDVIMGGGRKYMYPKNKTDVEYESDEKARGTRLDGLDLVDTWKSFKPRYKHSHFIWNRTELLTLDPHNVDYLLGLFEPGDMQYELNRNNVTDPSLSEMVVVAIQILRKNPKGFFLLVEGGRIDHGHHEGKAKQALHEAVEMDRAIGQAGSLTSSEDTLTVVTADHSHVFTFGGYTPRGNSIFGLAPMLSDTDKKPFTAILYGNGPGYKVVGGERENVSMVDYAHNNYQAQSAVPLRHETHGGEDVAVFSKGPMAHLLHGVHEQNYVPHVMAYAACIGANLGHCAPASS
Experimental: as §1

[5] = system: tissue nonspecific form of alkaline phosphatase; conditions: in several species; cited from earlier work

For CC(C)C[C@H](N)C(=O)O [leucine], the “inhibition of tissue-specific alkaline phosphatase” value [1] is given as “inhibit the tissue-specific form of alkaline phosphatase in a stereoselective fashion in that only the L-form is active”.

For c1ccc(C2CN3CCSC3=N2)cc1 (racemic) [Tetramisole, [±]-2,3,5,6-tetrahydro-6-phenyl-imidazo [2,1-b] thiazole], the “Hair Follicle Length Increase (mm) (Day 6-Day 0)” value ([2]; 0.5 mM, control 1.08 ± .25 mm) was 0.63 ± .06 mm, the inhibition at 500 µM ([2]; Homo sapiens, read-out: % Inhibition of hair growth) was 42 ± 5% and the IC50 ([3]; hamster hair follicle enzyme) was 125 µM.

In the case of N[C@@H](Cc1ccccc1)C(=O)O [phenylalanine], the “inhibition of tissue-specific alkaline phosphatase” value [1] is listed as “inhibit the tissue-specific form of alkaline phosphatase in a stereoselective fashion in that only the L-form is active”.

For N[C@@H](Cc1c[nH]c2ccccc12)C(=O)O [tryptophan], the “inhibition of tissue-specific alkaline phosphatase” value [1] is given as “inhibit the tissue-specific form of alkaline phosphatase in a stereoselective fashion in that only the L-form is active”.

For [Na+].[Na+].[Na+].[O]=[V]([O-])([O-])[O-] [Sodium Orthovanadate, sodium orthovanadate], the “% Inhibition / reduction in growth rate” value ([2]; 0.1 mM) was 58 ± 8%, the “% Inhibition / reduction in growth rate” value ([2]; 0.1 mM, listed as sodium orthovanadate) was 58±8% and the “Hair Follicle Length Increase (mm) (Day 6-Day 0)” value ([2]; 0.1 mM, control 0.77 ± .09 mm) was 0.32 ± .06 mm. For the same molecule, the IC50 ([3]; Flank Organ, Table 3, 30 minutes at 37° C.) was 40 µM, the IC50 ([3]; hamster hair follicle enzyme) was 40 µM and the IC50 ([4]; Human Hair Follicle, Table 3, 30 minutes at 37° C.) was 75 µM. It also gave an IC50 ([4]; human hair follicle enzyme) of 75 µM.

For N=C(N)NCCCC[C@H](N)C(=O)O [L-homeoarginine], the “inhibition of tissue nonspecific alkaline phosphatase” value [5] is listed as “inhibitor of the tissue nonspecific form of alkaline phosphatase in several species”.
